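Compound exposure: 48 hours, 5 concentrations, 96-well plates. GI50 = concentration required for 50% inhibition of growth. TGI is the concentration that stops growth completely.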
Experiments:
Experiment in all cases: NCI anticancer screen, dose series, 48 h
[1] = test system: A549 NSCLC
[2] = test system: CAKI-1 renal
[3] = test system: COLO 205 colon
[4] = test system: HOP-92 NSCLC
[5] = test system: HT29 colon
[6] = test system: RPMI-8226 leukemia
[7] = test system: SF-295 CNS
[8] = test system: SF-539 CNS
[9] = test system: SK-OV-3 ovarian
[10] = test system: HCT-15 colon

Row | Structure (SMILES) | TGI [1] [µM] | TGI [2] [µM] | TGI [3] [µM] | TGI [4] [µM] | TGI [5] [µM] | TGI [6] [µM] | TGI [7] [µM] | TGI [8] [µM] | TGI [9] [µM] | TGI [10] [µM] | GI50 [1] [µM] | GI50 [3] [nM] | GI50 [10] [nM] | GI50 [4] [nM] | GI50 [5] [nM] | GI50 [6] [µM] | GI50 [7] [µM] | GI50 [8] [nM] | GI50 [9] [nM] | GI50 [2] [µM]
1 | CC1=C(C(=O)Nc2cc(F)c(F)cc2F)C(c2cccc([N+](=O)[O-])c2)C(C(=O)Nc2ccccc2C(F)(F)F)=C(C)N1 (stereo not drawn) | > 100 | 49.6 | > 100 | 32.3 | 62.8 | 37.4 | 48.8 | 53.1 | 88.9 | – | – | – | – | – | – | – | – | – | – | –
2 | COC(=O)C12C3C=CC(O3)C1C1C=CC2O1 (stereo not drawn) | > 100 | – | > 100 | > 100 | > 100 | > 100 | > 100 | > 100 | > 100 | > 100 | – | – | – | – | – | – | – | – | – | –
3 | Oc1ccc(-c2nc(-c3ccc(F)cc3)c(-c3ccncc3)[nH]2)cc1 | > 100 | – | 40.5 | > 100 | > 100 | 38.2 | > 100 | > 100 | 80.3 | > 100 | 25.8 | 4770 | 13200 | 17200 | 3780 | 11.7 | 20.2 | 25700 | 5210 | –
4 | COc1ccc(C(NCCNC(c2ccc(OC)c(OC)c2)c2cc3c(cc2O)OCO3)c2cc3c(cc2O)OCO3)cc1OC (stereo not drawn) | 32.3 | 7.77 | > 26.1 | 17.1 | 9.69 | – | 17.8 | 6.09 | 18.8 | 5.21 | – | – | – | – | – | – | – | – | – | –
5 | COc1cc(C2c3cc4c(cc3[C@@H](OCCN)[C@H]3COC(=O)C23)OCO4)cc(OC)c1O (stereo partly drawn) | 1.34 | 1.52 | 6.51 | 1.43 | 2.69 | – | 0.543 | 0.345 | 1.48 | 24.7 | – | – | – | – | – | – | – | – | – | –
6 | CC(=O)OCC1OC(n2cnc3c(I)nc(I)nc32)C(OC(C)=O)C1OC(C)=O (stereo not drawn) | 32.7 | 4.09 | – | 9.16 | 19.7 | 31.1 | 35.1 | 29.6 | – | 15.6 | – | – | – | – | – | – | – | – | – | –
7 | Cn1c(=O)c2c(nc3n2C(CCl)CO3)n(C)c1=O (stereo not drawn) | – | > 100 | > 100 | > 100 | > 100 | > 100 | > 100 | > 100 | > 100 | > 100 | – | – | – | – | – | – | – | – | – | –
8 | CC[C@]12C=CCN3CC[C@]4(C(=C(C(=O)OC)C1)Nc1ccccc14)[C@@H]32 | 31.8 | 17.3 | 20 | 9.27 | 12.8 | 17.8 | 26.6 | 10.1 | – | 10.4 | 12.4 | 5620 | 2680 | 2280 | 3410 | 3.17 | 13 | 3090 | – | 4.7
9 | COc1cccc(C2C3=C(COC3=O)N(CCO)c3cc4c(cc32)CCC4)c1 (stereo not drawn) | – | > 50 | 0.198 | – | 0.156 | 11.6 | 0.543 | – | – | > 22.2 | 0.0982 | 58.4 | 122 | – | 42 | 0.127 | 0.0148 | 45.7 | 66.3 | 0.132
10 | CCOC(=O)c1c(-c2ccccc2)[nH]c2ccccc2c1=O | > 100 | > 100 | > 100 | > 100 | > 100 | > 100 | > 100 | – | > 100 | > 100 | – | – | – | – | – | – | – | – | – | –
11 | COC(=O)[C@@]12C3=NO[C@]1(C(=O)OC)C(O[Si](C)(C)C(C)(C)C)C1OC(C)(C)OC1[C@@H]2[C@@H](OCc1ccccc1)CC3 (stereo partly drawn) | > 100 | – | > 100 | 17.3 | > 100 | > 100 | > 100 | > 100 | > 100 | > 100 | – | – | – | – | – | – | – | – | – | –
12 | COc1ccc(C=O)c(N(C)C(=O)C(C)(C)C)c1 | > 100 | – | > 100 | > 100 | > 100 | > 100 | > 100 | > 100 | > 100 | > 100 | – | – | – | – | – | – | – | – | – | –
13 | COc1ccc(C(=O)Nc2ccccc2C#N)cc1 | > 100 | > 100 | > 100 | > 100 | > 100 | > 100 | > 100 | > 100 | – | > 100 | – | – | – | – | – | – | – | – | – | –
14 | Clc1ccc(C2=NN(c3ccccc3)C3c4cc(Br)ccc4OCC23)cc1 (stereo not drawn) | > 100 | – | > 100 | > 100 | > 100 | > 100 | > 100 | > 100 | > 100 | – | – | – | – | – | – | – | – | – | – | –
15 | COC(=O)C1(c2ccc(OC)cc2)NC(c2ccccc2)C2C(=O)N(c3ccc(OC)cc3)C(=O)C21 (stereo not drawn) | > 100 | > 100 | > 100 | – | > 100 | > 100 | > 100 | > 100 | > 100 | > 100 | – | – | – | – | – | – | – | – | – | –
16 | N/C(=N\N=C=C1C(=O)Nc2ccc(F)cc21)NO | > 100 | > 100 | > 100 | > 100 | > 100 | – | > 100 | > 100 | > 100 | > 100 | – | – | – | – | – | – | – | – | – | –
17 | Fc1cccc(C=NC23CC4CC(CC(C4)C2)C3)c1 | – | > 100 | > 100 | > 100 | > 100 | > 100 | > 100 | > 100 | > 100 | > 100 | – | – | – | – | – | – | – | – | – | –
18 | Cc1nc(N=C(N)N)nc2ccc3ccccc3c12 | 7.24 | 10.9 | 3.13 | – | 4.96 | 7.36 | 4.43 | 2.98 | 6.85 | 14.1 | 1.95 | 1130 | 2990 | – | 1950 | 2.53 | 1.03 | 1390 | 1920 | 2.5
19 | S=c1nc(/C=C/c2ccc(Cl)c(Cl)c2)[nH][nH]1 | > 100 | > 100 | – | 64.6 | > 100 | > 100 | > 100 | > 100 | > 100 | > 100 | – | – | – | 802 | – | 51.4 | – | – | – | 70
20 | CCOC(=O)C12CN(C34CC5CC(CC(C5)C3)C4)CC(C(=O)OCC)(C1=O)C(c1ccccc1)OC2c1ccccc1 (stereo not drawn) | > 100 | – | > 100 | 9.73 | > 100 | > 100 | > 100 | – | > 100 | > 100 | – | – | – | – | – | – | – | – | – | –
